Measurements: ChEMBL document CHEMBL1909046, “DrugMatrix in vitro pharmacology data”

Key:
[1] = DRUGMATRIX: Sodium/nucleoside co-transporter radioligand binding (ligand: nitrobenzylthioinosine); assay type: cell membranes, Cavia porcellus, Dunkin-Hartley, Cerebral cortex, Membrane; details: Not Active = under 50% inhibition at 10 µM
[2] = target: Sigma non-opioid intracellular receptor 1 (Homo sapiens, UniProt Q99720); assay: DRUGMATRIX: Sigma1 radioligand binding (ligand: [3H] Haloperidol); assay type: cell membranes, Jurkat, Membrane; details: jurkat; Not Active = under 50% inhibition at 10 µM
[3] = DRUGMATRIX: Calcium Channel Type L, Phenylalkylamine radioligand binding (ligand: [3H] (-)-Desmethoxyverapamil (D-888)); assay type: cell membranes, Rattus norvegicus, Wistar, Brain, Membrane; details: Not Active = under 50% inhibition at 10 µM
Endothelin-1 receptor = target: T1, Endothelin-1 receptor (Homo sapiens, UniProt P25101); assay type: cell membranes, CHO-K1, Membrane; details: cho-k1; also: in other assays of this panel Not Active means under 50% inhibition at 10 µM
T1 sequence (P25101 whole entry): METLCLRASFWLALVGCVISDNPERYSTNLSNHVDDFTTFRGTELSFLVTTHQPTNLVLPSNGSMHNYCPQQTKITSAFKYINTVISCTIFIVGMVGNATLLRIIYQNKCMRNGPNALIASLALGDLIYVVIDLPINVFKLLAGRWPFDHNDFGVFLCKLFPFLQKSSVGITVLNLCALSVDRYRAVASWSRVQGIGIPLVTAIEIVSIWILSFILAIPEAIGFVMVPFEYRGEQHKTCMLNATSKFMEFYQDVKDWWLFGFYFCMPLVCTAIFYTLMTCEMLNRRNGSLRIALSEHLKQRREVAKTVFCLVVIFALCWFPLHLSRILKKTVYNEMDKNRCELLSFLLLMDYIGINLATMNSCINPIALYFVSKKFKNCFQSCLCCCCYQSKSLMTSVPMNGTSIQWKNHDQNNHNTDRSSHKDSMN

[4] = target: T2, 3-hydroxy-3-methylglutaryl-coenzyme A reductase (Homo sapiens, UniProt P04035); parameters: species or system Escherichia coli;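 also: enzyme inhibition assay of HMG-CoA reductase using radiolabeled [14C]HMG-CoA as substrate; in other assays of this panel Not Active means under 50% inhibition at 10 µM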
T2 sequence (P04035 whole entry): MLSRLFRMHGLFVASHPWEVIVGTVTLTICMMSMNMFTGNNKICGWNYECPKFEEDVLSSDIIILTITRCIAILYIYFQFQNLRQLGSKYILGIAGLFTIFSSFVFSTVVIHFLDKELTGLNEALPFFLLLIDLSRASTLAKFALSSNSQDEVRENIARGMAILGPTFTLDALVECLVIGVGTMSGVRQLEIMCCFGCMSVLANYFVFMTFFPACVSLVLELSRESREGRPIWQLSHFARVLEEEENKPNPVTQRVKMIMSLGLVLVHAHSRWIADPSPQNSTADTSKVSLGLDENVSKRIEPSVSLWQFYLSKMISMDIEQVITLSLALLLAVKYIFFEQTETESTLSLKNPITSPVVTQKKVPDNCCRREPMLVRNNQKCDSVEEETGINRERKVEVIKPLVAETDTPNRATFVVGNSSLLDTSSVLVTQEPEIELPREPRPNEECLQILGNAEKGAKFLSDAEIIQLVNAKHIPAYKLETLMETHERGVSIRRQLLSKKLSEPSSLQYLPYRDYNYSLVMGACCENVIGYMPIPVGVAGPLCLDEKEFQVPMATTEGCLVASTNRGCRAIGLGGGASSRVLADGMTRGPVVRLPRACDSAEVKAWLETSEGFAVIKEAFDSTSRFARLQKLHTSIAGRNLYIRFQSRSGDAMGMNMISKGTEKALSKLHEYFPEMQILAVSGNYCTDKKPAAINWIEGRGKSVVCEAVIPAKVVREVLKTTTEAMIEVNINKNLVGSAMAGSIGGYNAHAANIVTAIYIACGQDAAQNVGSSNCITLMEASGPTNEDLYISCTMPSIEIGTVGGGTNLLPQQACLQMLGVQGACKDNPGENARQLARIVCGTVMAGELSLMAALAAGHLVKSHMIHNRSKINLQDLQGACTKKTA

[5] = target: T3, Cysteinyl leukotriene receptor 1 (Homo sapiens, UniProt Q9Y271); assay type: cell membranes, Membrane; details: cho-k1; also: in other assays of this panel Not Active means under 50% inhibition at 10 µM
T3 sequence (Q9Y271 whole entry): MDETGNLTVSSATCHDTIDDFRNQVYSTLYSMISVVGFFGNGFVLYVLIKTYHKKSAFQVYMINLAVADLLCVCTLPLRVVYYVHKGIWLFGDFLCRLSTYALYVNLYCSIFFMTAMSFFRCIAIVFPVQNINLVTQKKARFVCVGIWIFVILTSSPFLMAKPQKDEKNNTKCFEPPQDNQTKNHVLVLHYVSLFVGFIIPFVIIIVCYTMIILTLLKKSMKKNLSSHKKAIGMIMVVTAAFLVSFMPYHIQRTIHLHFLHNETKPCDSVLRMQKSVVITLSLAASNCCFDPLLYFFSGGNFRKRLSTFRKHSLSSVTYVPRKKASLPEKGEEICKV

Caspase-1 = target: T4, Caspase-1 (Homo sapiens, UniProt P29466); parameters: species or system Escherichia coli;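 also: Caspase-1 enzyme inhibition assay with a peptide substrate; in other assays of this panel Not Active means under 50% inhibition at 10 µM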
T4 sequence (P29466 whole entry): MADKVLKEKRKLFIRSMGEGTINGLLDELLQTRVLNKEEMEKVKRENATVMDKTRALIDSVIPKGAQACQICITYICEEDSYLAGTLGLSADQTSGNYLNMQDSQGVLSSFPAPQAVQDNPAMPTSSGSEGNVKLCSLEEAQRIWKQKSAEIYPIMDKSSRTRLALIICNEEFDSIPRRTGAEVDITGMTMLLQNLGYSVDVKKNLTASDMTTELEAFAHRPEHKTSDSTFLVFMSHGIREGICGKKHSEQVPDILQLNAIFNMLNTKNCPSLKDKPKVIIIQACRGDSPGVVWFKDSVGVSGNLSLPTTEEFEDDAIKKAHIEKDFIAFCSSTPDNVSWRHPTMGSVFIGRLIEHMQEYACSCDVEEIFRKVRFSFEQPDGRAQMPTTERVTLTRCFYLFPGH

Sigma non-opioid intracellular receptor 1, sequence (Q99720 whole entry): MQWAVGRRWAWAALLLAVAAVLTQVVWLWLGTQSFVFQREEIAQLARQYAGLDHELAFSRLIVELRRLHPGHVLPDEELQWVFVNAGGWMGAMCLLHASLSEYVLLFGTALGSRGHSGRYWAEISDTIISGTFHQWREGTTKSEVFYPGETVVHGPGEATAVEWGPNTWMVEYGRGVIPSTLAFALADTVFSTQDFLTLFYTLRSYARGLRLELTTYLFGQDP

CCn1cc(C(=O)O)c(=O)c2cc(F)c(N3CCNCC3)nc21 [ENOXACIN]
Not Active: IC50 [1] | Ki [1] | IC50 [2] | IC50 [3] | Ki [3] | IC50 (Endothelin-1 receptor) | IC50 [4] | IC50 [5] | IC50 (Caspase-1)

O=C(O)c1cc(=O)c2c(OCC(O)COc3cccc4oc(C(=O)O)cc(=O)c34)cccc2o1 [CROMOLYN]
Not Active: IC50 [1] | Ki [1] | IC50 [2] | IC50 [3] | Ki [3] | IC50 (Endothelin-1 receptor) | IC50 [4] | IC50 [5] | IC50 (Caspase-1)

CC(=O)OCC(CCn1cnc2cnc(N)nc21)COC(C)=O [FAMCICLOVIR]
Not Active: IC50 [1] | Ki [1] | IC50 [2] | IC50 [3] | Ki [3] | IC50 (Endothelin-1 receptor) | IC50 [4] | IC50 [5] | IC50 (Caspase-1)

O=P1(N(CCCl)CCCl)NCCCO1 (stereo not given) [CYCLOPHOSPHAMIDE ANHYDROUS]
Not Active: IC50 [1] | Ki [1] | IC50 [2] | IC50 [3] | Ki [3] | IC50 (Endothelin-1 receptor) | IC50 [4] | IC50 [5] | IC50 (Caspase-1)

O=c1cc(-c2ccccc2)oc2ccc3ccccc3c12 [BETA-NAPHTHOFLAVONE]
Not Active: IC50 [1] | Ki [1] | IC50 [2] | IC50 [3] | Ki [3] | IC50 (Endothelin-1 receptor) | IC50 [4] | IC50 [5] | IC50 (Caspase-1)

CC(C)(Sc1cc(C(C)(C)C)c(O)c(C(C)(C)C)c1)Sc1cc(C(C)(C)C)c(O)c(C(C)(C)C)c1 [PROBUCOL]
Not Active: IC50 [1] | Ki [1] | IC50 [2] | IC50 [3] | Ki [3] | IC50 (Endothelin-1 receptor) | IC50 [4] | IC50 [5] | IC50 (Caspase-1)

CO[C@@]1(NC(=O)CSCC#N)C(=O)N2C(C(=O)O)=C(CSc3nnnn3C)CS[C@@H]21 [CEFMETAZOLE]
Not Active: IC50 [1] | Ki [1] | IC50 [2] | IC50 [3] | Ki [3] | IC50 (Endothelin-1 receptor) | IC50 [4] | IC50 [5] | IC50 (Caspase-1)

CC(=O)O[C@]1(C(C)=O)CC[C@H]2[C@@H]3C=C(C)C4=CC(=O)CC[C@]4(C)[C@H]3CC[C@@]21C [MEGESTROL ACETATE]
Not Active: IC50 [1] | Ki [1] | IC50 [2] | IC50 [3] | Ki [3] | IC50 (Endothelin-1 receptor) | IC50 [4] | IC50 [5] | IC50 (Caspase-1)

COc1cc(CNC(=O)CCCC/C=C/C(C)C)ccc1O [CAPSAICIN]
Not Active: IC50 [1] | Ki [1] | IC50 [2] | IC50 [3] | Ki [3] | IC50 (Endothelin-1 receptor) | IC50 [4] | IC50 [5] | IC50 (Caspase-1)

CC(C)(C)c1ccc(S(=O)(=O)/C=C/C#N)cc1 [BAY-11-7085]
Not Active: IC50 [1] | Ki [1] | IC50 [2] | IC50 [3] | Ki [3] | IC50 (Endothelin-1 receptor) | IC50 [4] | IC50 [5] | IC50 (Caspase-1)

O=C(c1ccccc1Cl)N1CCC(Cc2ccccc2)CC1
Not Active: IC50 [1] | Ki [1] | IC50 [2] | IC50 [3] | Ki [3] | IC50 (Endothelin-1 receptor) | IC50 [4] | IC50 [5] | IC50 (Caspase-1)

CCOC(=O)[C@H](CCc1ccccc1)N[C@@H](C)C(=O)N1Cc2ccccc2C[C@H]1C(=O)O
Not Active: IC50 [1] | Ki [1] | IC50 [2] | IC50 [3] | Ki [3] | IC50 (Endothelin-1 receptor) | IC50 [4] | IC50 [5] | IC50 (Caspase-1)

CC[C@H]1OC(=O)[C@H](C)[C@@H](O[C@H]2C[C@@](C)(OC)[C@@H](O)[C@H](C)O2)[C@H](C)[C@@H](O[C@@H]2O[C@H](C)C[C@H](N(C)C)[C@H]2O)[C@](C)(O)C[C@@H](C)CN(C)[C@H](C)[C@@H](O)[C@]1(C)O [AZITHROMYCIN]
Not Active: IC50 [1] | Ki [1] | IC50 [2] | IC50 [3] | Ki [3] | IC50 (Endothelin-1 receptor) | IC50 [4] | IC50 [5] | IC50 (Caspase-1)

Cc1cccc(Nc2ccccc2C(=O)O)c1C [MEFENAMIC ACID]
Not Active: IC50 [1] | Ki [1] | IC50 [2] | IC50 [3] | Ki [3] | IC50 (Endothelin-1 receptor) | IC50 [4] | IC50 [5] | IC50 (Caspase-1)

COC(=O)c1ccccc1O [METHYL SALICYLATE]
Not Active: IC50 [1] | Ki [1] | IC50 [2] | IC50 [3] | Ki [3] | IC50 (Endothelin-1 receptor) | IC50 [4] | IC50 [5] | IC50 (Caspase-1)

N[C@@H](Cc1ccc(F)cc1)C(=O)O
Not Active: IC50 [1] | Ki [1] | IC50 [2] | IC50 [3] | Ki [3] | IC50 (Endothelin-1 receptor) | IC50 [4] | IC50 [5] | IC50 (Caspase-1)

C[C@]12C/C(=C/O)C(=O)C[C@@H]1CC[C@@H]1[C@@H]2CC[C@@]2(C)[C@H]1CC[C@]2(C)O [OXYMETHOLONE]
Not Active: IC50 [1] | Ki [1] | IC50 [2] | IC50 [3] | Ki [3] | IC50 (Endothelin-1 receptor) | IC50 [4] | IC50 [5] | IC50 (Caspase-1)

Clc1cc2c(cc1Cl)Oc1cc(Cl)c(Cl)cc1O2 [2,3,7,8-TETRACHLORODIBENZO-P-DIOXIN]
Not Active: IC50 [1] | Ki [1] | IC50 [2] | IC50 [3] | Ki [3] | IC50 (Endothelin-1 receptor) | IC50 [4] | IC50 [5] | IC50 (Caspase-1)

OCCO [ETHYLENE GLYCOL]
Not Active: IC50 [1] | Ki [1] | IC50 [2] | IC50 [3] | Ki [3] | IC50 (Endothelin-1 receptor) | IC50 [4] | IC50 [5] | IC50 (Caspase-1)

NC[C@H]1O[C@H](O[C@H]2[C@H](O)[C@@H](O[C@H]3O[C@H](CO)[C@@H](O)[C@H](N)[C@H]3O)[C@H](N)C[C@@H]2N)[C@H](O)[C@@H](O)[C@@H]1O [KANAMYCIN]
Not Active: IC50 [1] | Ki [1] | IC50 [2] | IC50 [3] | Ki [3] | IC50 (Endothelin-1 receptor) | IC50 [4] | IC50 [5] | IC50 (Caspase-1)
